Experimental data reported in PMC5940854, “Nitrothiophene carboxamides, a novel narrow spectrum antibacterial series: Mechanism of action and Efficacy” (Scientific Reports, 2018).
≈ marks a conversion by molar mass, not a printed value. Like-named read-outs stand apart in the source and are kept apart here.

What was measured:
[1] = tested on: E. coli clinical isolates; test: MIC on panel of E. coli clinical isolates; type: cell-based
[2] = tested on: E. coli ∆nfsAB & ∆acrB+nfnB; design: unit not given beside the values
Procedure: The inoculum used for all the experiments is derived from a single seed lot that is maintained as glycerol stocks at −80 °C and are sub cultured on LB plate for isolated colonies. Single colony of each strain is grown in M9 medium. All test compound stocks and dilutions are prepared in DMSO. Serial two-fold dilutions of compounds are prepared separately, with the concentrations ranging from 2 mg/mL to 0.015 mg/mL. To 150 µl (3–7 × 10^5 CFU/ml) of bacterial culture in 96 well microtitre plates, 3 μL compound from each of the dilutions is added to respective wells to obtain final concentrations ranging from 40 µg/mL to 0.3 µg/mL of the test compounds. Media control, culture control and appropriate reference drug controls are included. […] Growth is monitored by checking absorbance at 600 nm (A600). […] The samples from MIC and above concentrations are plated for MBC (Minimum Bactericidal Concentration). The samples are diluted 1:10 and plated on LB agar plates. […] The killing kinetics is determined by enumerating survivors at various time points following compound exposure. E. coli cells (~10^7 CFU/ml; A600 of 0.1) are treated with various concentrations (40 µg/mL to 0.3 µg/mL) of compounds in a 96-well microtitre plate. At various time intervals (0 to 8 h), 30 μl volumes of treated cultures are serially diluted and plated on LB agar plates. […] Data is expressed as the log10 CFU for each drug treatment.

[3] = target: T1, NfsA (Escherichia coli, UniProt P17117); test: Nitroreductase activity assay, NfsA; type: biochemical, E. coli; conditions: 20 μM compound, 40 μM NADPH, 10 nM NfsA; slope of initial velocity
T1 construct: His-tag; made in house; host or cells: E. coli BL21(DE3), pET28a (pET-nfsA)
Outline: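 NADPH (40 μM) oxidation by 10 nM NfsA, or NADH (40 μM) oxidation by 70 nM NfsB, against 20 μM nitro substrate in 50 mM Tris-HCl pH 7.4, 5 mM EDTA; NfsA run at 25 °C. Fluorescence decrease (ex 340/em 485 NADPH; ex 350/em 460 NADH) read every 10 s; first-90-s slopes, blank-corrected, expressed relative to nitrofurantoin with NfsB.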

[4] = tested on: wild-type E. coli CGSC#7636 (BW25113); test: MIC, wild-type E. coli; type: cell-based; conditions: Escherichia coli, read-out: MIC WT
Outline: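 Growth inhibition was read as absorbance at 600 nm after exposing 3–7 × 10^5 CFU/ml cultures in M9 medium to final compound concentrations of 40 µg/mL to 0.3 µg/mL. For killing kinetics, ~10^7 CFU/ml cells were treated over 0 to 8 h and survivors counted.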

T1 sequence (P17117 whole entry): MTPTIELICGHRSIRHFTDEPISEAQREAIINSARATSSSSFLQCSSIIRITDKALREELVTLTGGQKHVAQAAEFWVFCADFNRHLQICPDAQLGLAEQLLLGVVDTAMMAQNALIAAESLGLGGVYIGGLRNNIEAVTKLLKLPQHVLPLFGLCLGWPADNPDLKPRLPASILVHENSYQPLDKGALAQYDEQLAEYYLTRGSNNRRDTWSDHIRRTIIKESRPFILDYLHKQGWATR

Compound: O=C(Nc1nc(-c2ccc(F)cc2)cs1)c1ccc([N+](=O)[O-])s1 [compound 15, N-(4-(4-Fluorophenyl)thiazol-2-yl)-5-nitrothiophene-2-carboxamide]
- MIC Range ([1]; 75 E.coli clinical isolates): 0.6 to 40 µg/mL
- MIC50 ([1]; Escherichia coli, 75 E.coli clinical isolates, 50% clinical isolates): 1.25 µg/mL (≈ 3.58 µM)
- MIC90 ([1]; Escherichia coli, 75 E.coli clinical isolates, 90% clinical isolates): 10 µg/mL (≈ 28.6 µM)
- MIC ([1]; strain SEC001): 1 µg/mL (≈ 2.86 µM)
- MIC ([1]; strain SEC002): 0.5 µg/mL (≈ 1.43 µM)
- MIC ([1]; strain SEC003): 4 µg/mL (≈ 11.4 µM)
- MIC ([1]; strain SEC004): 1 µg/mL (≈ 2.86 µM)
- MIC ([1]; strain SEC005): 0.5 µg/mL (≈ 1.43 µM)
- MIC ([1]; strain SEC006): 0.5 µg/mL (≈ 1.43 µM)
- MIC ([1]; strain SEC007): 1 µg/mL (≈ 2.86 µM)
- MIC ([1]; strain SEC008): 4 µg/mL (≈ 11.4 µM)
- MIC ([1]; strain SEC011): 0.5 µg/mL (≈ 1.43 µM)
- MIC ([1]; strain SEC012): 1 µg/mL (≈ 2.86 µM)
- MIC ([1]; strain SEC013): 2 µg/mL (≈ 5.72 µM)
- MIC ([1]; strain SEC014): 1 µg/mL (≈ 2.86 µM)
- MIC ([1]; strain SEC015): 0.5 µg/mL (≈ 1.43 µM)
- MIC ([1]; strain SEC016): 8 µg/mL (≈ 22.9 µM)
- MIC ([1]; strain SEC017): 1 µg/mL (≈ 2.86 µM)
- MIC ([1]; strain SEC018): 0.5 µg/mL (≈ 1.43 µM)
- MIC ([1]; strain SEC019): 4 µg/mL (≈ 11.4 µM)
- MIC ([1]; strain SEC020): 1 µg/mL (≈ 2.86 µM)
- MIC ([1]; strain SEC021): 0.5 µg/mL (≈ 1.43 µM)
- MIC ([1]; strain SEC022): 1 µg/mL (≈ 2.86 µM)
- MIC ([1]; strain SEC023): 0.5 µg/mL (≈ 1.43 µM)
- MIC ([1]; strain SEC024): 2 µg/mL (≈ 5.72 µM)
- MIC ([1]; strain SEC025): 4 µg/mL (≈ 11.4 µM)
- MIC ([1]; strain SEC026): 2 µg/mL (≈ 5.72 µM)
- MIC ([1]; strain SEC028): 1 µg/mL (≈ 2.86 µM)
- MIC ([1]; strain SEC029): 8 µg/mL (≈ 22.9 µM)
- MIC ([1]; strain SEC031): 8 µg/mL (≈ 22.9 µM)
- MIC ([1]; strain SEC032): 1 µg/mL (≈ 2.86 µM)
- MIC ([1]; strain SEC033): 1 µg/mL (≈ 2.86 µM)
- MIC ([1]; strain SEC034): 1 µg/mL (≈ 2.86 µM)
- MIC ([1]; strain SEC035): 8 µg/mL (≈ 22.9 µM)
- MIC ([1]; strain SEC036): 2 µg/mL (≈ 5.72 µM)
- MIC ([1]; strain SEC037): 8 µg/mL (≈ 22.9 µM)
- MIC ([1]; strain SEC038): 8 µg/mL (≈ 22.9 µM)
- MIC ([1]; strain SEC039): 4 µg/mL (≈ 11.4 µM)
- MIC ([1]; strain SEC040): 8 µg/mL (≈ 22.9 µM)
- MIC ([1]; strain SEC041): 8 µg/mL (≈ 22.9 µM)
- MIC ([1]; strain SEC042): 8 µg/mL (≈ 22.9 µM)
- MIC ([1]; strain SEC043): 8 µg/mL (≈ 22.9 µM)
- MIC ([1]; strain SEC044): 8 µg/mL (≈ 22.9 µM)
- MIC ([1]; strain SEC045): 8 µg/mL (≈ 22.9 µM)
- MIC ([1]; strain SEC046): 8 µg/mL (≈ 22.9 µM)
- MIC ([1]; strain SEC047): 8 µg/mL (≈ 22.9 µM)
- MIC ([1]; strain SEC048): 8 µg/mL (≈ 22.9 µM)
- MIC ([1]; strain SEC049): 8 µg/mL (≈ 22.9 µM)
- MIC ([1]; strain SEC050): 2 µg/mL (≈ 5.72 µM)
- MIC ([1]; strain SEC051): 2 µg/mL (≈ 5.72 µM)
- MIC ([1]; strain SEC052): 1 µg/mL (≈ 2.86 µM)
- MIC ([1]; strain SEC053): 8 µg/mL (≈ 22.9 µM)
- MIC ([1]; strain SEC054): 1 µg/mL (≈ 2.86 µM)
- MIC ([1]; strain SEC055): 1 µg/mL (≈ 2.86 µM)
- MIC ([1]; strain SEC057): 1 µg/mL (≈ 2.86 µM)
- MIC ([1]; strain SEC058): 0.5 µg/mL (≈ 1.43 µM)
- MIC ([1]; strain SEC059): 0.5 µg/mL (≈ 1.43 µM)
- MIC ([1]; strain SEC060): 0.5 µg/mL (≈ 1.43 µM)
- MIC ([1]; strain SEC061): 2 µg/mL (≈ 5.72 µM)
- MIC ([1]; strain SEC062): 2 µg/mL (≈ 5.72 µM)
- MIC ([1]; strain SEC063): 1 µg/mL (≈ 2.86 µM)
- MIC ([1]; strain SEC064): 1 µg/mL (≈ 2.86 µM)
- MIC ([1]; strain SEC065): 1 µg/mL (≈ 2.86 µM)
- MIC ([1]; strain SEC067): 1 µg/mL (≈ 2.86 µM)
- MIC ([1]; strain SEC068): 1 µg/mL (≈ 2.86 µM)
- MIC ([1]; strain SEC069): 1 µg/mL (≈ 2.86 µM)
- MIC ([1]; strain SEC070): 4 µg/mL (≈ 11.4 µM)
- MIC ([1]; strain SEC071): 8 µg/mL (≈ 22.9 µM)
- MIC ([1]; strain SEC072): 8 µg/mL (≈ 22.9 µM)
- MIC ([1]; strain SEC073): 8 µg/mL (≈ 22.9 µM)
- MIC ([1]; strain SEC074): 1 µg/mL (≈ 2.86 µM)
- MIC ([1]; strain SEC075): 1 µg/mL (≈ 2.86 µM)
- MIC ([1]; strain SEC076): 1 µg/mL (≈ 2.86 µM)
- MIC ([1]; strain SEC077): 0.5 µg/mL (≈ 1.43 µM)
- MIC ([1]; strain SEC078): 0.5 µg/mL (≈ 1.43 µM)
- MIC ([1]; strain SEC079): 1 µg/mL (≈ 2.86 µM)
- MIC ([1]; strain SEC080): 1 µg/mL (≈ 2.86 µM)
- MIC ∆nfsAB & ∆acrB+nfnB [2]: 0.6
- NfsA activity (rate of compound conversion) [3]: 2.05 µM/min
- MIC ([4]; BW25113, E. coli WT BW25113): 1.25 µg/mL (≈ 3.58 µM)
- MIC ([4]; BW25113, Table S11): 1.25 µg/mL (≈ 3.58 µM)
